Measurements published in EP0553186B1, “METHOD FOR PRODUCING T H?-I[…] T LYMPHOCYTES” (IMMUNEX CORPORATION, priority 1990, dated 1992).

Test system: CD8^+ T cell clone T81
Assay: Outgrowth of T81 CTL under G418 drug selection
Type: cell-based, mouse
Details: parental T81 cells, doses used for selection
Procedure: • A. Selection of CD8^+T cell clone T81 transduced with retroviral vector L.IL-1RSN encoding murine IL-1R. The retroviral vector L.IL-1RSN encoding the murine IL-1 receptor was introduced into the tumor specific CD3^+, CD8^+ T cell clone T81 as follows. T81 is specific for an antigen expressed on the K1735 mouse melanoma cell line. T81 was propagated by stimulation every 8-10 days with tumor antigen and irradiated syngeneic splenocytes as feeder cells. Recombinant IL-2 (50 U/ml) was added to the cultures 48 hours following stimulation. […] The cells were analyzed for M5 binding on a Beckton-Dickinson FACscan analyzer. […] The IL-1 receptors on the T81 cells infected with the L.IL-1RSN vector were analyzed for ^125I-IL-1α binding as previously described (Dower et al., Nature (Lond) 324 :266,1986). […] Nonspecific binding of ^125I-IL-1 was measured by incubation in the presence of an excess of unlabelled IL-1. At the end of the incubation, bound and free ^125I-IL-1 were separated by centrifugation over a phthalate oil mixture and the amount of radiolabel in each fraction measured. The data were corrected for non-specific binding and then analyzed by nonlinear least square fitting to estimate the number of IL-1R/cell. […]

## CN[C@@H]1[C@@H](O)[C@@H](O[C@@H]2[C@@H](O)[C@H](O[C@H]3O[C@H]([C@@H](C)O)[C@@H](O)[C@H](O)[C@H]3N)[C@@H](N)C[C@H]2N)OC[C@]1(C)O [G418]
  toxicity of G418 to cells: toxic to the parental cells
